Results reported in patent US20090010873A1, “Methods of Cell Therapy, Neurogenesis and Oligodendrogenesis” (YEDA RESEARCH AND DEVELOPMENT CO. LTD., priority 2004, published 2009).

Columns and labels:
[1] = tested on: C57B1/6J mice with spinal cord injury; assay: Spinal cord contusion in mice: motor recovery (Basso motor score) after immunization and aNPC transplantation; assay type: in vivo, mouse
[2] = tested on: neural progenitor cells (NPCs); assay: NPCs co-cultured with microglia pre-activated by aggregated Aβ and cytokines (β-III-tubulin); assay type: cell-based, mouse; conditions: 10 days co-culture; Aβ 5 μM, IFN-γ 10 ng/ml
Procedure: (xlvi) Reagents. Recombinant mouse IFN-γ and IL-4 (both containing endotoxin at a concentration below 0.1 ng/μg cytokine) were obtained from R&D Systems (Minneapolis, Minn.). β-amyloid peptides [amyloid protein fragment 1-40 and 1-42 (Aβ1-40/1-42)] were purchased from Sigma-Aldrich, St. Louis, Mo. The Aβ peptides were dissolved in endotoxin-free water, and Aβ aggregates were formed by incubation of Aβ, as described (Ishii et al., 2000).
(li) Neural progenitor cell culture. Coronal sections (2 mm thick) of tissue containing the subventricular zone of the lateral ventricle were obtained from the brains of adult C57B1/6J mice. The tissue was minced and then incubated for digestion at 37° C., 5% CO2 for 45 min in Earle's balanced salt solution containing 0.94 mg/ml papain (Worthington, Lakewood, N.J.) and 0.18 mg/ml of L-cysteine and EDTA. After centrifugation at 110×g for 15 min at room temperature, the tissue was mechanically dissociated by pipette trituration. Cells obtained from single-cell suspensions were plated (3500 cells/cm^2) in 75-cm^2 Falcon tissue-culture flasks (BD Biosciences, San Diego, Calif.), in NPC-culturing medium [Dulbecco's modified Eagles's medium (DMEM)/F12 medium (Gibco/Invitrogen, Carlsbad, Calif.) containing 2 mM L-glutamine, 0.6% glucose, 9.6 μg/ml putrescine, 6.3 ng/ml progesterone, 5.2 ng/ml sodium selenite, 0.02 mg/ml insulin, 0.1 mg/ml transferrin, 2 μg/ml heparin (all from Sigma-Aldrich, Rehovot, Israel), fibroblast growth factor-2 (human recombinant, 20 ng/ml), and epidermal growth factor (human recombinant, 20 ng/ml; both from Peprotech, Rocky Hill, N.J.)]. Spheres were passaged every 4-6 days and replated as single cells. Green fluorescent protein (GFP)-expressing NPCs were obtained as previously described (Pluchino et al., 2003).
(lii) Primary microglial culture. Brains from neonatal (P0-P1) C57B1/6J mice were stripped of their meninges and minced with scissors under a dissecting microscope (Zeiss, Stemi DV4, Germany) in Leibovitz-15 medium (Biological Industries, Kibbutz Beit Ha-Emek, Israel). […]

[3] = tested on: neural progenitor cells (NPCs); assay: Oligodendrocyte differentiation of GFP-expressing NPCs co-cultured with differently activated microglia (NG2, RIP); assay type: cell-based, mouse; conditions: direct addition to NPCs, 500 ng/ml, no insulin
Procedure: (i) Neuralprogenitor cell (NPC) culture. Coronal sections (2 mm thick) of tissue containing the subventricular zone of the lateral ventricle were obtained from the brains of adult C57B16/J mice. The tissue was minced and then incubated for digestion at 37° C., 5% CO2 for 45 mine in Earle's balanced salt solution containing 0.94 mg/ml papain (Worthington, Lakewood, N.J.) and 0.18 mg/ml of L-cysteine and EDTA. After centrifugation at 110×g for 15 min at room temperature, the tissue was mechanically dissociated by pipette trituration. Cells obtained from single-cell suspensions were plated (3500 cells/cm^2) in 75-cm^2 Falcon tissue-culture flasks (BD Biosciences, Franklin Lakes, N.J.), in NPC-culturing medium [Dulbecco's modified Eagles's medium (DMEM)/F12 medium (Gibco/Invitrogen, Carlsbad, Calif.) containing 2 mM L-glutamine, 0.6% glucose, 9.6 μg/ml putrescine, 6.3 ng/ml progesterone, 5.2 ng/ml sodium selenite, 0.02 mg/ml insulin, 0.1 mg/ml transferrin, 2 μg/ml heparin (all from Sigma-Aldrich, Rehovot, Israel), fibroblast growth factor-2 (human recombinant, 20 ng/ml), and epidermal growth factor (human recombinant, 20 ng/ml; both from Peprotech, Rocky Hill, N.J.)]. Spheres were passaged every 4-6 days and replated as single cells. Green fluorescent protein (GFP)-expressing neural progenitor cells (NPCs) were obtained as previously described (Pluchino et al., 2003). […]

Substance: MOG/CFA/PBS: immunization with pMOG 35-55 in CFA, PBS i.c.v. instead of aNPCs (MEVGWYRSPFSRVVHLYRNGK; in CFA; UniProt Q61885 63-83, looked up, fragment)
- mean motor recovery (BMS) score ([1]; immunization immediately after SCI (pMOG 35-55 or PBS in CFA 0.5% M. tuberculosis), aNPCs or PBS i.c.v. 1 week later, mean±SEM): 2.71±0.5

Substance: Aβ(1-40): aggregated amyloid protein fragment 1-40 used to activate microglia
- GFP^+/βIIIT^+ cells (neurogenesis) with microglia activated by the agent [2]: blocked neurogenesis

Substance: Aβ(1-42): amyloid protein fragment 1-42 used to activate microglia
- GFP^+/βIIIT^+ cells (neurogenesis) with microglia activated by the agent [2]: negative effect was not exhibited

Substance: rIGF-I: recombinant IGF-I
- differentiation of NPCs to NG2-expressing cells [3]: significant differentiation to NG2-expressing cells

Substance: altered MOG peptide (45D) MEVGWYRSPFDRVVHLYRNGK [45D peptide, peptide analog of MOG 35-55 containing a serine to aspartic acid substitution]
- BMS ([1]; immunization in CFA 2.5% M. tuberculosis 1 week before SCI, aNPCs i.c.v. 1 week after SCI, mean±SEM): 4.11±0.27
- BMS ([1]; immunization in CFA 2.5% M. tuberculosis 1 week before SCI, without aNPC transplantation): 2.57±0.24

Substance: OVA/CFA/PBS: nonself protein ovalbumin (OVA) emulsified in CFA, PBS i.c.v.
- BMS ([1]; ovalbumin in CFA 2.5% M. tuberculosis, aNPCs or PBS i.c.v.): 2.2±0.68

Substance: MOG, residues 35-55 MEVGWYRSPFSRVVHLYRNGK (emulsified in CFA) [MOG/CFA, MOG peptide 35-55 emulsified in CFA containing 2.5% Mycobacterium tuberculosis]
- BMS ([1]; MOG peptide 35-55 in CFA 2.5% M. tuberculosis one week prior to SCI, no aNPCs): 0.35±0.2
